According to PubChem BioAssay (NCI):
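Five compound concentrations were applied to cells in 96-well plates for 48 hours; endpoints were derived by simple linear interpolation of the resulting dose-response curve. At the TGI there is no net growth.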

How the values were obtained:
Test in all cases: NCI-60 cell line screen, 48 h
TK-10 renal = tested on: TK-10 renal
NCI-H522 lung = tested on: NCI-H522 lung
RPMI-8226 leukemia = tested on: RPMI-8226 leukemia
SF-295 CNS = tested on: SF-295 CNS
DU-145 prostate = tested on: DU-145 prostate
786-0 renal = tested on: 786-0 renal
EKVX NSCLC = tested on: EKVX NSCLC
SK-MEL-28 melanoma = tested on: SK-MEL-28 melanoma
SK-OV-3 ovarian = tested on: SK-OV-3 ovarian
MDA-MB-435 = tested on: MDA-MB-435
COLO 205 colon = tested on: COLO 205 colon
MDA-MB-231 breast = tested on: MDA-MB-231 breast
SW-620 colon = tested on: SW-620 colon
HCC-2998 colon = tested on: HCC-2998 colon
HS 578T breast = tested on: HS 578T breast
SF-539 CNS = tested on: SF-539 CNS
SN12C renal = tested on: SN12C renal
SR leukemia = tested on: SR leukemia
T-47D breast = tested on: T-47D breast
NCI/ADR-RES ovarian = tested on: NCI/ADR-RES ovarian
OVCAR-3 ovarian = tested on: OVCAR-3 ovarian
A498 renal = tested on: A498 renal
UO-31 renal = tested on: UO-31 renal
IGROV1 ovarian = tested on: IGROV1 ovarian
MALME-3M melanoma = tested on: MALME-3M melanoma
OVCAR-8 ovarian = tested on: OVCAR-8 ovarian
CCRF-CEM leukemia = tested on: CCRF-CEM leukemia
PC-3 prostate = tested on: PC-3 prostate
MCF7 breast = tested on: MCF7 breast
SNB-19 CNS = tested on: SNB-19 CNS
MOLT-4 leukemia = tested on: MOLT-4 leukemia
MDA-N = tested on: MDA-N
K-562 leukemia = tested on: K-562 leukemia
CAKI-1 renal = tested on: CAKI-1 renal
HCT-116 colon = tested on: HCT-116 colon
SK-MEL-5 melanoma = tested on: SK-MEL-5 melanoma
HT29 colon = tested on: HT29 colon
A549 NSCLC = tested on: A549 NSCLC
SK-MEL-2 melanoma = tested on: SK-MEL-2 melanoma
HL-60(TB) leukemia = tested on: HL-60(TB) leukemia
NCI-H23 lung = tested on: NCI-H23 lung
UACC-62 melanoma = tested on: UACC-62 melanoma
NCI-H226 lung = tested on: NCI-H226 lung
RXF 393 renal = tested on: RXF 393 renal
HCT-15 colon = tested on: HCT-15 colon
NCI-H460 lung = tested on: NCI-H460 lung
HOP-62 NSCLC = tested on: HOP-62 NSCLC
SNB-75 CNS = tested on: SNB-75 CNS
OVCAR-4 ovarian = tested on: OVCAR-4 ovarian
ACHN renal = tested on: ACHN renal
KM12 colon = tested on: KM12 colon
M14 melanoma = tested on: M14 melanoma
SF-268 CNS = tested on: SF-268 CNS
U251 CNS = tested on: U251 CNS
OVCAR-5 ovarian = tested on: OVCAR-5 ovarian
HOP-92 NSCLC = tested on: HOP-92 NSCLC
LOX IMVI melanoma = tested on: LOX IMVI melanoma
UACC-257 melanoma = tested on: UACC-257 melanoma

Compound: CC(C)C(O)(C(=O)OCN1C(=O)C2C3C=CC(C2C1=O)C1C2C(=O)N(COC(=O)C(O)(C(C)C)C(C)O)C(=O)C2C31)C(C)O (configuration not stated)
- TGI (TK-10 renal): > 100 µM
- TGI (NCI-H522 lung): > 100 µM
- TGI (RPMI-8226 leukemia): > 100 µM
- TGI (SF-295 CNS): > 100 µM
- TGI (DU-145 prostate): > 100 µM
- TGI (786-0 renal): > 100 µM
- TGI (EKVX NSCLC): > 100 µM
- TGI (SK-MEL-28 melanoma): > 100 µM
- TGI (SK-OV-3 ovarian): > 100 µM
- TGI (MDA-MB-435): > 100 µM
- TGI (COLO 205 colon): > 100 µM
- TGI (MDA-MB-231 breast): > 100 µM
- TGI (SW-620 colon): > 100 µM
- TGI (HCC-2998 colon): > 100 µM
- TGI (HS 578T breast): > 100 µM
- TGI (SF-539 CNS): > 100 µM
- TGI (SN12C renal): > 100 µM
- TGI (SR leukemia): > 100 µM
- TGI (T-47D breast): > 100 µM
- TGI (NCI/ADR-RES ovarian): > 100 µM
- TGI (OVCAR-3 ovarian): > 100 µM
- TGI (A498 renal): > 100 µM
- TGI (UO-31 renal): > 100 µM
- TGI (IGROV1 ovarian): > 100 µM
- TGI (MALME-3M melanoma): > 100 µM
- TGI (OVCAR-8 ovarian): > 100 µM
- TGI (CCRF-CEM leukemia): > 100 µM
- TGI (PC-3 prostate): > 100 µM
- TGI (MCF7 breast): > 100 µM
- TGI (SNB-19 CNS): > 100 µM
- TGI (MOLT-4 leukemia): > 100 µM
- TGI (MDA-N): > 100 µM
- TGI (K-562 leukemia): > 100 µM
- TGI (CAKI-1 renal): > 100 µM
- TGI (HCT-116 colon): > 100 µM
- TGI (SK-MEL-5 melanoma): > 100 µM
- TGI (HT29 colon): > 100 µM
- TGI (A549 NSCLC): > 100 µM
- TGI (SK-MEL-2 melanoma): > 100 µM
- TGI (HL-60(TB) leukemia): > 100 µM
- TGI (NCI-H23 lung): > 100 µM
- TGI (UACC-62 melanoma): > 100 µM
- TGI (NCI-H226 lung): > 100 µM
- TGI (RXF 393 renal): > 100 µM
- TGI (HCT-15 colon): > 100 µM
- TGI (NCI-H460 lung): > 100 µM
- TGI (HOP-62 NSCLC): > 100 µM
- TGI (SNB-75 CNS): > 100 µM
- TGI (OVCAR-4 ovarian): > 100 µM
- TGI (ACHN renal): > 100 µM
- TGI (KM12 colon): > 100 µM
- TGI (M14 melanoma): > 100 µM
- TGI (SF-268 CNS): > 100 µM
- TGI (U251 CNS): > 100 µM
- TGI (OVCAR-5 ovarian): > 100 µM

Compound: Cc1nc(Nc2ccc(Cl)cc2Cl)sc1C(=O)Nc1ccccc1
- TGI (TK-10 renal): > 100 µM
- TGI (NCI-H522 lung): > 100 µM
- TGI (RPMI-8226 leukemia): > 100 µM
- TGI (SF-295 CNS): > 100 µM
- TGI (DU-145 prostate): > 100 µM
- TGI (786-0 renal): > 100 µM
- TGI (EKVX NSCLC): > 100 µM
- TGI (SK-MEL-28 melanoma): > 100 µM
- TGI (HOP-92 NSCLC): > 100 µM
- TGI (SK-OV-3 ovarian): > 100 µM
- TGI (MDA-MB-435): > 100 µM
- TGI (COLO 205 colon): > 100 µM
- TGI (MDA-MB-231 breast): > 100 µM
- TGI (SW-620 colon): > 100 µM
- TGI (HCC-2998 colon): > 100 µM
- TGI (HS 578T breast): > 100 µM
- TGI (SF-539 CNS): > 100 µM
- TGI (SN12C renal): > 100 µM
- TGI (SR leukemia): > 100 µM
- TGI (T-47D breast): > 100 µM
- TGI (NCI/ADR-RES ovarian): > 100 µM
- TGI (OVCAR-3 ovarian): > 100 µM
- TGI (A498 renal): > 100 µM
- TGI (UO-31 renal): > 100 µM
- TGI (IGROV1 ovarian): > 100 µM
- TGI (LOX IMVI melanoma): > 100 µM
- TGI (MALME-3M melanoma): > 100 µM
- TGI (OVCAR-8 ovarian): > 100 µM
- TGI (CCRF-CEM leukemia): > 100 µM
- TGI (PC-3 prostate): > 100 µM
- TGI (MCF7 breast): > 100 µM
- TGI (SNB-19 CNS): > 100 µM
- TGI (MOLT-4 leukemia): > 100 µM
- TGI (MDA-N): > 100 µM
- TGI (K-562 leukemia): > 100 µM
- TGI (UACC-257 melanoma): > 100 µM
- TGI (CAKI-1 renal): > 100 µM
- TGI (HCT-116 colon): > 100 µM
- TGI (SK-MEL-5 melanoma): > 100 µM
- TGI (HT29 colon): > 100 µM
- TGI (A549 NSCLC): > 100 µM
- TGI (SK-MEL-2 melanoma): > 100 µM
- TGI (NCI-H23 lung): > 100 µM
- TGI (UACC-62 melanoma): > 100 µM
- TGI (NCI-H226 lung): 17.4 µM
- TGI (RXF 393 renal): > 100 µM
- TGI (HCT-15 colon): > 100 µM
- TGI (NCI-H460 lung): > 100 µM
- TGI (HOP-62 NSCLC): > 100 µM
- TGI (SNB-75 CNS): > 100 µM
- TGI (OVCAR-4 ovarian): > 100 µM
- TGI (ACHN renal): > 100 µM
- TGI (KM12 colon): > 100 µM
- TGI (M14 melanoma): > 100 µM
- TGI (SF-268 CNS): > 100 µM
- TGI (U251 CNS): > 100 µM
- TGI (OVCAR-5 ovarian): > 100 µM
